Experimental data taken from patent US8679514B2, “Fungicidal mixtures based on azolopyrimidinylamines” (BASF SE, priority 2005, dated 2014).

Experiments:
Type in all cases: cell-based
[1] = system: Phytophthora infestans; assay: microbe, parasite or virus in culture
[2] = system: Botrytis cinerea; assay: Activity against the gray mold pathogen Botrytis cinerea in the microtiter test; settings: Botrytis cinerea, single active compound, read-out: Observed activity (%); for inhibition at […]: Conc. 0.063 mg/l; for inhibition at 0.25 µg/mL: Conc. 0.25 mg/l; for inhibition at 1 µg/mL: Conc. 1 mg/l
[3] = system: Pyricularia oryzae; assay: microbe, parasite or virus in culture
[4] = Phytophthora infestans, read-out: Observed activity (%)
[5] = Pyricularia oryzae, read-out: Observed activity (%)

`CO/C=C(/C(=O)OC)c1ccccc1CO/N=C(C)/C=C/c1ccc(Cl)cc1` [enestroburin] was tested, and the “Observed activity (%)” value [1] was 35%.
`CSC1=N[C@@](C)(c2ccccc2)C(=O)N1Nc1ccccc1` [fenamidone] was tested, and the inhibition at […] [1, 4] was 40%.
Compound `O=[N+]([O-])c1cc(C(F)(F)F)c(Cl)c([N+](=O)[O-])c1Nc1ncc(C(F)(F)F)cc1Cl` [fluazinam] has an inhibition at […] [2] of 50% and an inhibition at 0.25 µg/mL [1, 4] of 9%.
With `CC(C)OC(=O)N[C@H](C(=O)N[C@H](C)c1nc2ccc(F)cc2s1)C(C)C` [flubenthiavalicarb] the “Observed activity (%)” value [1] was 68%.
`CO/N=C(/C1=NOCCO1)c1ccccc1Oc1ncnc(Oc2ccccc2Cl)c1F` [fluoxastrobin] gave an inhibition at 0.025 µg/mL [1, 4] of 2% and an inhibition at […] [1, 4] of 1%.
`O=c1c2cc(F)ccc2nc(-n2cncn2)n1-c1ccc(Cl)cc1Cl` [fluquinconazole, 3-(2,4-dichlorophenyl)-6-fluoro-2-[1,2,4]-triazol-1-yl-3H-quinazolin-4-one, reference compound] showed an inhibition at 4 µg/mL [3, 5] of 0%, an inhibition at […] [2] of 22% and an inhibition at 1 µg/mL [1, 4] of 0%. The inhibition at 4 µg/mL [1, 4] was 0%.
`C[Si](Cn1cncn1)(c1ccc(F)cc1)c1ccc(F)cc1` [flusilazole] showed an inhibition at 0.25 µg/mL [2] of 43%, an inhibition at 1 µg/mL [1, 4] of 0% and an inhibition at 4 µg/mL [1, 4] of 11%.
`O=C1c2ccccc2C(=O)N1SC(Cl)(Cl)Cl` [folpet] was tested, and the inhibition at 1 µg/mL [2] was 2% and the inhibition at 1 µg/mL [1, 4] was 6%.
In the case of `CC(C)NC(=O)N1CC(=O)N(c2cc(Cl)cc(Cl)c2)C1=O` [iprodione, N-isopropyl-3-(3,5-dichlorophenyl)-2,4-dioxoimidazolidine-1-carboxamide, reference compound], the inhibition at 4 µg/mL [3, 5] is reported as 46%.
`COc1cc(C)c(C(=O)c2c(OC)ccc(Br)c2C)c(OC)c1OC` [metrafenone, 3′-bromo-2,3,4,6′-tetramethoxy-2′,6-dimethylbenzophenone, reference compound] showed an inhibition at 63 µg/mL [3, 5] of 42% and an inhibition at 4 µg/mL [1, 4] of 2%.
In the case of `Cc1cccc(C)c1N(C(=O)CCl)C1CCOC1=O` (centres unmarked) [ofurace], the inhibition at 4 µg/mL [1, 4] is reported as 0% and the inhibition at 16 µg/mL [1, 4] is reported as 19%.
`COCC(=O)N(c1c(C)cccc1C)N1CCOC1=O` [oxadixyl] gave an inhibition at 1 µg/mL [1, 4] of 0%, an inhibition at 4 µg/mL [1, 4] of 2% and an inhibition at 16 µg/mL [1, 4] of 17%.
With `CCCN(CCOc1c(Cl)cc(Cl)cc1Cl)C(=O)n1ccnc1` [prochloraz] the inhibition at 16 µg/mL [1, 4] was 6%.
Work on `CCCC1COC(Cn2cncn2)(c2ccc(Cl)cc2Cl)O1` (centres unmarked) [propiconazole] yielded an inhibition at 1 µg/mL [1, 4] of 1%, an inhibition at 4 µg/mL [1, 4] of 11% and an inhibition at 16 µg/mL [1, 4] of 12%.
With `OC(Cc1ccccc1Cl)(Cn1nc[nH]c1=S)C1(Cl)CC1` (centres unmarked) [prothioconazole, 2-[2-(1-chlorocyclopropyl)-3-(2-chlorophenyl)-2-hydroxypropyl]-2,4-dihydro-[1,2,4]triazole-3-thione, reference compound] the inhibition at 4 µg/mL [3, 5] was 11% and the inhibition at 4 µg/mL ([2]; Conc. 4 mg/l) was 48%.
For `COC(=O)N(OC)c1ccccc1COc1ccn(-c2ccc(Cl)cc2)n1` [pyraclostrobin], the inhibition at 0.016 µg/mL [1, 4] was 14% and the inhibition at […] [1, 4] was 59%.
Work on `CC(C)(C)C(O)(CCc1ccc(Cl)cc1)Cn1cncn1` (centres unmarked) [tebuconazole] yielded an inhibition at 0.25 µg/mL [2] of 50%, an inhibition at 1 µg/mL [1, 4] of 8% and an inhibition at 4 µg/mL [1, 4] of 10%. For the same compound, the inhibition at 16 µg/mL [1, 4] was 9%.
Compound `COC(=O)NC(=S)Nc1ccccc1NC(=S)NC(=O)OC` [thiophanate-methyl] has an inhibition at 0.25 µg/mL [2] of 12%.
With `CON=C(C(=O)OC)c1ccccc1CON=C(C)c1cccc(C(F)(F)F)c1` [trifloxystrobin] the inhibition at 0.25 µg/mL [1, 4] was 33% and the inhibition at 1 µg/mL [1, 4] was 46%.
With `C=CC1(C)OC(=O)N(c2cc(Cl)cc(Cl)c2)C1=O` (centres unmarked) [vinclozolin] the inhibition at 1 µg/mL [2] was 21% and the inhibition at 16 µg/mL [1, 4] was 0%.
With maneb the “Observed activity (%)” value [3] was 32% and the “Observed activity (%)” value [1] was 6%.
With “zinc ammoniate ethylenebis(dithiocarbamate) [metiram, reference compound]” the “Observed activity (%)” value [3] was 26%.
